For two compounds, EC50 results are on record in patent publication US9969767B2, “Oxolupene derivatives” (priority 2014, dated 2018).

The structures appear in SMILES notation.

The assay relates to recombinant NL4-3 virus (Renilla luciferase in nef, Gag P373S). Put plainly: HIV Cell Culture Assay (luciferase reporter virus in MT-2 cells). The format is cell-based. The conditions noted are these: NL43. As to the method: MT-2 cells and 293T cells were obtained from the NIH AIDS Research and Reference Reagent Program. MT-2 cells were propagated in RPMI 1640 media supplemented with 10% heat inactivated fetal bovine serum, […]. The 293T cells were propagated in DMEM media supplemented with 10% heat inactivated fetal bovine serum (FBS), 100 units/mL penicillin G and 100 μg/mL streptomycin. The proviral DNA clone of NL4-3 was obtained from the NIH AIDS Research and Reference Reagent Program. A recombinant NL4-3 virus, in which a section of the nef gene from NL4-3 was replaced with the Renilla luciferase gene, was used as a reference virus. In addition, residue Gag P373 was converted to P373S. Briefly, the recombinant virus was prepared by transfection of the altered proviral clone of NL4-3. Transfections were performed in 293T cells using LipofectAMINE PLUS from Invitrogen (Carlsbad, Calif.), according to manufacturer's instruction. The virus was titered in MT-2 cells using luciferase enzyme activity as a marker. Luciferase was quantitated using the Dual Luciferase kit from Promega (Madison, Wis.), with modifications to the manufacturer's protocol. The diluted Passive Lysis solution was pre-mixed with the re-suspended Luciferase Assay Reagent and the re-suspended Stop & Glo Substrate (2:1:1 ratio). Fifty (50) μL of the mixture was added to each aspirated well on assay plates and luciferase activity was measured immediately on a Wallac TriLux (Perkin-Elmer). Antiviral activities of inhibitors toward the recombinant virus were quantified by measuring luciferase activity in cells infected for 4-5 days with NLRluc recombinants in the presence serial dilutions of the inhibitor.
(In general: A reporter such as luciferase makes a cellular process visible.)

Broadly, the EC50 is the midpoint of the concentration-response curve. In the case of `CC(C)C1=C2[C@H]3CC[C@@H]4[C@@]5(C)CC=C(C6=CCC(C(=O)O)CC6)C(C)(C)[C@@H]5CC[C@@]4(C)[C@]3(C)CC[C@@]2(NCCN2CCS(=O)(=O)CC2)CC1=O` (stereo partly drawn) [Example 6, 4-((3aR,5aR,5bR,7aR,11aS,11bR,13aS)-3a-((2-(1,1-dioxidothiomorpholino)ethyl)amino)-1-isopropyl-5a,5b,8,8,11a-pentamethyl-2-oxo-3,3a,4,5,5a,5b,6,7,7a,8,11,11a,11b,12,13,13a-hexadecahydro-2H-cyclopenta[a]chrysen-9-yl)cyclohex-3-enecarboxylic acid], the EC50 was less than 100 nM.

With `CC(C)C1=C2[C@H]3CC[C@@H]4[C@@]5(C)CC=C(C6=CCC(C(=O)O)CC6)C(C)(C)[C@@H]5CC[C@@]4(C)[C@]3(C)CC[C@@]2(C(O)CN(CCN(C)C)Cc2ccc(Cl)cc2)CC1=O` (stereo partly drawn) [Example 15, 4-((3aR,5aR,5bR,7aR,11aS,11bR,13aS)-3a-(2-((4-chlorobenzyl)(2-(dimethylamino)ethyl)amino)-1-hydroxyethyl)-1-isopropyl-5a,5b,8,8,11a-pentamethyl-2-oxo-3,3a,4,5,5a,5b,6,7,7a,8,11,11a,11b,12,13,13a-hexadecahydro-2H-cyclopenta[a]chrysen-9-yl)cyclohex-3-enecarboxylic acid], the EC50 is less than 100 nM.
